From US20100115666A1, “Transcriptional Repressors of Cytokinin Signaling and Their Use” (FREIE UNIVERSITÄT BERLIN, priority 2006, published 2010) come the findings set out here.

Assay [1] concerns Arabidopsis seedlings. The assay is described as follows: Cytokinin sensitivity of roots (root elongation, lateral root formation). The class given is in vivo, Arabidopsis thaliana. Here is the method: ([…] plants are less sensitive to cytokinin inhibition of root elongation. Root elongation was measured for each line between 4 and 9 DAG. The root elongation of each line is expressed as percentage of its DMSO control. Results shown for each line represent means from at least three independent replicates. ([…] plants are less sensitive to cytokinin inhibition of lateral root formation. The number of lateral roots was determined 9 DAG. Error bars represent SD (n>15). Arabidopsis seeds were grown on vertical plates containing different concentration of BA ranging from 0.01 μM to 1.0 mM. 0.1% dimethyl sulfoxide (DMSO) was included as vehicle control. The primary root lengths were marked on day four and nine after germination. Photographs were taken with a digital camera (Nikon Coolpix 8800) and root lengths were determined using Scion Image program version beta 4.02 (www.scioncorp.com). The number of lateral roots emerging from the epidermis of the primary root was counted under a microscope […]. The experiments were performed using three independent replicates and 15 seedlings in each replicate. To investigate the cytokinin response in roots, seedlings of wild type and the 35[…] lines were grown on media containing increasing amounts of cytokinin. […] The relative difference in root length increased with increasing cytokinin concentrations (FIG. 7a). […]

For assay [2], the system named is detached leaves. Briefly: Chlorophyll retention assay in detached leaves. The class given is in vivo, Arabidopsis thaliana. To be noted: wild type leaves, 0.1 μM BA, 10 d dark. As to the method: (b) Quantification of chlorophyll retention by cytokinin. […] Three independent plates with five leaves per plate were examined for each concentration. Two chlorophyll measurements were taken per plate. The chlorophyll content was determined spectrophotometrically as described in Example 3.5. Error bars represent SD (n=15). The chlorophyll retention assay was performed as described by ([…] et al., 2006). Either the sixth or the seventh leaf was detached from 24-days-old in vitro grown seedlings and floated on distilled water supplemented with 0, 0.01, 0.1, 0.5, 1.0 or 5.0 μM BA in 0.1% DMSO in small Petri dishes for 10 d at RT in the dark. Three replicates of each genotype, each consisting of five leaves were taken for measurement. Chlorophyll was extracted with methanol for 24 h in the dark. The amount of chlorophyll was measured with a spectrophotometer, normalized to fresh weight, and the chlorophyll content was calculated as described (Porra et al., 1989).

Assay [3] concerns ARR6:GUS reporter gene. The assay is described as follows: Protoplast transactivation assay (ARR6:GUS reporter). The class given is cell-based, Arabidopsis.
Experimental: The ARR6:GUS reporter construct and a 35S:GUS construct without any effector plasmid were used as controls. Protoplasts were co-transfected with the ARR6:GUS reporter and an effector plasmid expressing ARR1, ARR1-SRDX or both effector plasmids simultaneously. […] Variations in transformation efficiencies were normalized by using a 35S:NAN reporter gene construct. The mean values and SD of four independent transfection assays were calculated and shown as relative GUS/NAN activity units.
Protoplast isolation and transformation was carried out according to the method described by Hwang and Sheen (Hwang and Sheen, 2001). For isolation of mesophyll protoplasts 4-5 weeks old rosette leaves were used. Transformation of protoplasts was mediated by 40% PEG solution. […] For the transactivation assays, 9 μg of the ARR6: GUS reporter plasmid and 14 μg of each effector plasmid carrying 35S:ARR1 and 35S:ARR1-SRDX were used. For normalization 3 μg of a plasmid harboring the 35S:NAN gene (Kirby and Kavanagh, 2002) was added. Both GUS and NAN enzyme assays were performed according to Kirbay and Kavanagh (Kirby and Kavanagh, 2002). The ratios of GUS and NAN activities were calculated as relative GUS/NAN activity units.

As to `c1ccc(CNc2ncnc3[nH]cnc23)cc1` [BA], the “root length reduction compared to control” value in assay [1] (wild type plants, 1 μM BA) stood at 75%. The lateral root formation result in assay [1] (wild type, 0.1 μM BA) is “unable to produce lateral roots”. Also, in assay [2], the chlorophyll retention entry is recorded as “strongly increased chlorophyll retention”.

For `C/C(=C\CNc1ncnc2nc[nH]c12)CO` [cytokinin, trans-zeatin], the “induction of the reporter gene expression compared to the non-induced condition” value in assay [3] (ARR6:GUS reporter without effector, 500 nM trans-zeatin, 16 h) is “more than threefold induction”. Moreover, in assay [3] (with 35S:ARR1 effector, 500 nM trans-zeatin), the “further increase of the GUS activity on addition of cytokinin” value is “twofold increase”.

B1: ARR1: Arabidopsis thaliana B-type response regulator ARR1 (SEQ ID NO: 12), expressed under the 35S promoter (protein, listed as Arabidopsis thaliana)
chain: MMNPSHGRGLGSAGGSSSGRNQGGGGETVVEMFPSGLRVLVVDDDPTCLMILERMLRTCLYEVTKCNRAEMALSLLRKNKHGFDIVISDVHMPDMDGFKLLEHVGLEMDLPVIMMSADDSKSVVLKGVTHGAVDYLIKPVRMEALKNIWQHVVRKRRSEWSVPEHSGSIEETGERQQQQHRGGGGGAAVSGGEDAVDDNSSSVNEGNNWRSSSRKRKDEEGEEQGDDKDEDASNLKKPRVVWSVELHQQFVAAVNQLGVEKAVPKKILELMNVPGLTRENVASHLQKYRIYLRRLGGVSQHQGNLNNSFMTGQDASFGPLSTLNGFDLQALAVTGQLPAQSLAQLQAAGLGRPAMVSKSGLPVSSIVDERSIFSFDNTKTRFGEGLGHHGQQPQQQPQMNLLHGVPTGLQQQLPMGNRMSIQQQIAAVRAGNSVQNNGMLMPLAGQQSLPRGPPPMLTSSQSSIRQPMLSNRISERSGFSGRNNIPESSRVLPTSYTNLTTQHSSSSMPYNNFQPELPVNSFPLASAPGISVPVRKATSYQEEVNSSEAGFTTPSYDMFTTRQNDWDLRNIGIAFDSHQDSESAAFSASEAYSSSSMSRHNTTVAATEHGRNHQQPPSGMVQHHQVYADGNGGSVRVKSERVATDTATMAFHEQYSNQEDLMSALLKQV
For B1, the GUS activity result in assay [3] (co-transfection with ARR1 under 35S promoter, absence of cytokinin) is given as “strong increase in GUS activity”.
